These results are taken from patent US10966954B2, “Electrophilically enhanced phenolic compounds for treating inflammatory related diseases and disorders” (priority 2016, dated 2021).

Assay in all cases: microbe, parasite or virus in culture
What all share (type): cell-based

For assay [1], the system named is A/HK/1/68 (H3N2). To be noted: Influenza A virus, H3N2, MDCK, 168 h.
For assay [2], the system named is A/TX/36/91 (H1N1). To be noted: Influenza A virus, H1N1, MDCK, 168 h.
Assay [3] has as its system A/Perth/265/09 (H1N1). The following applies: Influenza A virus, H1N1, MDCK, 168 h.

SMILES strings stand for the structures. pEC50: −log10 of the molar value.

Take `CC(=O)N[C@H]1[C@H]([C@H](O)[C@H](O)CO)OC(C(=O)O)=C[C@@H]1N=C(N)N` [Zanamivir]: the pEC50 in assay [1] was 4.56; in assay [2], 6.14; in assay [3], 5.82.

By pEC50 is commonly meant the EC50 on a negative log10 scale, so that one unit is a factor of ten. A higher pEC50 goes with a small EC50.
